Measurements taken from patent publication US11612681B2, “Compositions and devices for removal of endotoxins and cytokines from fluids” (priority 2017, dated 2023).

Assays:
[1] = Fluorescent polarization assay of FITC-LPS complexation; format: binding; conditions: FITC-LPS 10 μg/mL in PBS
Method: Fluorescent polarization assays. The fluorescence polarization (FP) was measured on the Multi-Mode Microplate Reader (Synergy™ 2, Biotek, VT) equipped with dichroic mirror (510 nm) and polarizing filter. The measurements were carried out on black flat bottom 96-well plates (Nunclon™ Surface, Roskilde, Denmark). The FP of LPS-FITC was record at excitation and emission filter of 485/20 nm and 528/20 nm, respectively. The experiments were performed in triplicate.

[2] = format: binding, E. coli; conditions: 40:1 mass ratio of PMB/LPS
Method: Electrophoresis Assays. The binding capacities of the telodendrimers with LPS and/or BSA were studied and compared with PMB binding using electrophoresis assay. The electrophoresis was carried out in 1.5% agarose gel (tris-borate-EDTA (TBE) buffer) at constant current of 20 mA for 2 h. The gel was imaged by a Bio-Rad Universal Hood II Imager (Bio-Rad Laboratories, Inc.) under SYBR Green modes or photographed under UV illumination.
Electrophoresis assays. The binding capacities of the telodendrimers with LPS and/or bovine serum albumin (BSA) were studied and compared with PMB binding using electrophoresis assay. The electrophoresis was carried out in 1.5% agarose gel (Tris-borate-EDTA (TBE) buffer) at constant current of 20 mA for 2 h. The gel was imaged by a Bio-Rad Universal Hood II Imager (Bio-Rad Laboratories, Inc.) under SYBR Green modes or photographed under UV illumination.

For Polymyxin B [PMB], which “fluorescent polarization of FITC-LPS” value [1] is on record?
The value was “only slightly increased”.

And the “stability of LPS complex in electrophoresis” value [2]?
The value was “unstable and dissociated”.
